Reference: patent US9302999B2, “Substituted triazoles as herbicides” (E. I. DU PONT DE NEMOURS AND COMPANY, priority 2012, dated 2016)

Key:
Format in all cases: in vivo
corn (Zea mays) = test: Test A pre-/postemergence: corn; conditions: for Corn plant response rating: Postemergence; for Plant response rating, Corn: Preemergence
Summary of the method: (§1)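 Visual 0–100 injury ratings (0 no effect, 100 complete control) taken about ten days after treatment, relative to untreated controls. Preemergence treatment was a directed soil spray; postemergence plants were 2–10 cm tall at one- to two-leaf stage. Soil: loam/sand blend.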

[1] = tested on: morningglory (Ipomoea spp.); test: Test A pre-/postemergence: morningglory; conditions: for Morningglory plant response rating: Postemergence; for Plant response rating, Morningglory: Preemergence
Summary of the method: as §1

[2] = tested on: pigweed (Amaranthus retroflexus); test: Test A pre-/postemergence: pigweed; conditions: for Pigweed plant response rating: Postemergence; for Plant response rating, Pigweed: Preemergence
Summary of the method: as §1

[3] = tested on: foxtail, giant (giant foxtail, Setaria faberii); test: Test A pre-/postemergence: foxtail, giant; conditions: for Foxtail, Giant plant response rating: Postemergence; for Plant response rating, Foxtail, Giant: Preemergence
Summary of the method: as §1

[4] = tested on: ducksalad (Heteranthera limosa); test: Test C flooded paddy test: ducksalad; conditions: scale 0 to 100 (0 no effect, 100 complete control)
Summary of the method: (§2)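 Plants were grown to the 2-leaf stage, pots flooded to 3 cm above soil, and test compounds applied directly to the paddy water, with that depth held throughout. After 13 to 15 days in a greenhouse, injury was visually rated against controls on a 0 (no effect) to 100 (complete control) scale.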

[5] = tested on: barnyardgrass (Echinochloa crus-galli); test: Test A pre-/postemergence: barnyardgrass; conditions: for Barnyardgrass plant response rating: Postemergence; for Plant response rating, Barnyardgrass: Preemergence
Summary of the method: as §1

[6] = tested on: velvetleaf (Abutilon theophrasti); test: Test A pre-/postemergence: velvetleaf; conditions: for Velvetleaf plant response rating: Postemergence; for Plant response rating, Velvetleaf: Preemergence
Summary of the method: as §1

[7] = tested on: sedge, umbrella (small-flower umbrella sedge, Cyperus difformis); test: Test C flooded paddy test: sedge, umbrella; conditions: scale 0 to 100 (0 no effect, 100 complete control)
Summary of the method: as §2

[8] = tested on: crabgrass, large (large crabgrass, Digitaria sanguinalis); test: Test A pre-/postemergence: crabgrass, large; conditions: for Crabgrass, Large plant response rating: Postemergence; for Plant response rating, Crabgrass, Large: Preemergence
Summary of the method: as §1

rice (Oryza sativa) = test: Test C flooded paddy test: rice; conditions: scale 0 to 100 (0 no effect, 100 complete control)
Summary of the method: as §2

[9] = tested on: wheat (Triticum aestivum); test: Test A pre-/postemergence: wheat; conditions: for Wheat plant response rating: Postemergence; for Plant response rating, Wheat: Preemergence
Summary of the method: as §1

[10] = tested on: barnyardgrass (Echinochloa crus-galli); test: Test C flooded paddy test: barnyardgrass; conditions: scale 0 to 100 (0 no effect, 100 complete control)
Summary of the method: as §2

[11] = 125 g ai/ha, 0 to 100 scale, 0 is no effect, 100 is complete control
[12] = 500 g ai/ha, visual rating on 0 to 100 scale (0 no effect, 100 complete control), approximately ten days
[13] = 125 g ai/ha, 0 to 100 scale (0 no effect, 100 complete control)
[14] = 500 g ai/ha, 0 to 100 scale, 0 is no effect, 100 is complete control
[15] = Flood (flooded paddy test), 62 g ai/ha, visual rating after 13 to 15 days
[16] = Flood (flooded paddy test), 250 g ai/ha, visual rating after 13 to 15 days
[17] = Flood (flooded paddy test), 125 g ai/ha, visual rating after 13 to 15 days

Cc1nn(-c2cccc(C(F)(F)F)c2)nc1Oc1cc(C(F)(F)F)ncn1 [Compound 38]
Corn plant response rating (corn (Zea mays); [11]): 0 | Corn plant response rating (corn (Zea mays); [12]): 0 | Plant response rating, Corn (corn (Zea mays); [13]): 0 | Plant response rating, Corn (corn (Zea mays); [14]): 0 | Morningglory plant response rating [1, 11]: 0 | Morningglory plant response rating [1, 12]: 0 | Plant response rating, Morningglory [1, 13]: 0 | Plant response rating, Morningglory [1, 14]: 0 | Pigweed plant response rating [2, 11]: 0 | Pigweed plant response rating [2, 12]: 30 | Plant response rating, Pigweed [2, 13]: 0 | Plant response rating, Pigweed [2, 14]: 10 | Foxtail, Giant plant response rating [3, 11]: 0 | Foxtail, Giant plant response rating [3, 12]: 0 | Plant response rating, Foxtail, Giant [3, 13]: 0 | Plant response rating, Foxtail, Giant [3, 14]: 20 | Plant response rating, Ducksalad [4, 15]: 0 | Plant response rating, Ducksalad [4, 16]: 0 | Barnyardgrass plant response rating [5, 11]: 0 | Barnyardgrass plant response rating [5, 12]: 0 | Plant response rating, Barnyardgrass [5, 13]: 0 | Plant response rating, Barnyardgrass [5, 14]: 0 | Velvetleaf plant response rating [6, 11]: 0 | Velvetleaf plant response rating [6, 12]: 60 | Plant response rating, Velvetleaf [6, 13]: 0 | Plant response rating, Velvetleaf [6, 14]: 0 | Plant response rating, Sedge, Umbrella [7, 15]: 0 | Plant response rating, Sedge, Umbrella [7, 16]: 0 | Crabgrass, Large plant response rating [8, 11]: 20 | Crabgrass, Large plant response rating [8, 12]: 50 | Plant response rating, Crabgrass, Large [8, 13]: 50 | Plant response rating, Crabgrass, Large [8, 14]: 60 | Plant response rating, Rice (rice (Oryza sativa); [15]): 0 | Plant response rating, Rice (rice (Oryza sativa); [16]): 0 | Wheat plant response rating [9, 11]: 0 | Wheat plant response rating [9, 12]: 0 | Plant response rating, Wheat [9, 13]: 0 | Plant response rating, Wheat [9, 14]: 0 | Plant response rating, Barnyardgrass [10, 15]: 0 | Plant response rating, Barnyardgrass [10, 16]: 0

Cc1nn(-c2cccc(C(F)(F)F)c2)nc1Oc1ccnc(C(F)(F)F)c1 [Compound 40]
Corn plant response rating (corn (Zea mays); [11]): 10 | Corn plant response rating (corn (Zea mays); [12]): 30 | Plant response rating, Corn (corn (Zea mays); [13]): 0 | Plant response rating, Corn (corn (Zea mays); [14]): 10 | Morningglory plant response rating [1, 11]: 70 | Morningglory plant response rating [1, 12]: 100 | Plant response rating, Morningglory [1, 13]: 0 | Plant response rating, Morningglory [1, 14]: 10 | Pigweed plant response rating [2, 11]: 100 | Pigweed plant response rating [2, 12]: 100 | Plant response rating, Pigweed [2, 13]: 90 | Plant response rating, Pigweed [2, 14]: 100 | Foxtail, Giant plant response rating [3, 11]: 60 | Foxtail, Giant plant response rating [3, 12]: 90 | Plant response rating, Foxtail, Giant [3, 13]: 100 | Plant response rating, Foxtail, Giant [3, 14]: 100 | Plant response rating, Ducksalad [4, 15]: 30 | Plant response rating, Ducksalad [4, 17]: 60 | Plant response rating, Ducksalad [4, 16]: 70 | Plant response rating, Ducksalad ([4]; Flood, 31 g ai/ha): 30 | Barnyardgrass plant response rating [5, 11]: 30 | Barnyardgrass plant response rating [5, 12]: 40 | Plant response rating, Barnyardgrass [5, 13]: 30 | Plant response rating, Barnyardgrass [5, 14]: 80 | Velvetleaf plant response rating [6, 11]: 70 | Velvetleaf plant response rating [6, 12]: 100 | Plant response rating, Velvetleaf [6, 13]: 10 | Plant response rating, Velvetleaf [6, 14]: 20 | Plant response rating, Sedge, Umbrella [7, 15]: 75 | Plant response rating, Sedge, Umbrella [7, 17]: 80 | Plant response rating, Sedge, Umbrella [7, 16]: 80 | Plant response rating, Sedge, Umbrella ([7]; Flood, 31 g ai/ha): 70 | Crabgrass, Large plant response rating [8, 11]: 80 | Crabgrass, Large plant response rating [8, 12]: 90 | Plant response rating, Crabgrass, Large [8, 13]: 100 | Plant response rating, Crabgrass, Large [8, 14]: 100 | Plant response rating, Rice (rice (Oryza sativa); [15]): 10 | Plant response rating, Rice (rice (Oryza sativa); [17]): 20 | Plant response rating, Rice (rice (Oryza sativa); [16]): 25 | Plant response rating, Rice (rice (Oryza sativa); Flood, 31 g ai/ha): 0 | Wheat plant response rating [9, 11]: 20 | Wheat plant response rating [9, 12]: 30 | Plant response rating, Wheat [9, 13]: 0 | Plant response rating, Wheat [9, 14]: 20 | Plant response rating, Barnyardgrass [10, 15]: 20 | Plant response rating, Barnyardgrass [10, 17]: 30 | Plant response rating, Barnyardgrass [10, 16]: 30 | Plant response rating, Barnyardgrass ([10]; Flood, 31 g ai/ha): 20
